According to PMC11928319 (Nature Plants, 2025):
Where a SMILES comes first, the peptide text is derived from it. [ ]: non-standard residue; d: D form. Hyp = O=C(O)[C@@H]1C[C@@H](O)CN1

How the values were obtained:
[1] = system: filter-sterile supernatant of Rhodanobacter R179 (secreted peptidase(s)); experiment: Peptide quantification by mass spectrometry after incubation in cell-free supernatant of Rhodanobacter R179; type: in vitro ADME; settings: for peptide detected by mass spectrometry after incubation in supernatant of the R179 dssAB mutant / peptide detected by mass spectrometry after incubation in supernatant of wild-type R179: 1 µM peptide, 1 h, LC-MS MS1 peak area; for peptide detected by mass spectrometry after incubation in supernatant of the R179 dssAB mutant: filter-sterile supernatant of dssAB mutant cultivated in XVM2 (OD600 = 0.4), n = 3; for peptide detected by mass spectrometry after incubation in supernatant of wild-type R179: filter-sterile supernatant of wild-type R179 cultivated in XVM2 minimal medium (OD600 = 0.4), light chamber, n = 3 culture supernatants
Method: Elicitors were also supplemented into the medium prior to solidification at a final concentration of 1 µM. The flg22 ([…]) and AtPep1 ([…]) peptides were synthesized by EZbiolab. elf18^R179 (Ac-[…]) and elf18 (Ac-[…]) were synthesized by GenScript and EZbiolab, respectively. For inoculation with the bacterial supernatant, bacteria were cultivated overnight in XVM2 minimal medium (20 mM NaCl, 10 mM (NH4)2SO4, 5 mM MgSO4, 1 mM CaCl2, 0.16 mM KH2PO4, 0.32 mM K2HPO4, 0.01 mM FeSO4, 10 mM fructose, 10 mM sucrose, 0.03% Casamino acids, pH 6.7)[76] to a final concentration of OD600 = 0.4. Bacteria were pelleted by centrifugation (11,600 g, 2 min), and the supernatant was sterile-filtered using filter units with MF-Millipore membrane (0.22 µm; Millex). The supernatant was incubated in boiling water for 30 min for heat treatment. Then, 25 ml of 1× MS with 20 g l^−1 Bacto Agar was mixed with 25 ml of supernatant prior to medium solidification and poured into square petri dishes. Sterilized seeds were placed on solidified agar in square petri dishes and vertically incubated for 14 days.
Bacterial supernatants were prepared as described in ‘Agar-based cultivation of axenic plants and co-cultivation with bacteria, bacterial supernatants and elicitors’. Here, additionally, the peptides dRGF1 (DYSNPGHHP-Hyp-RHN) and PSY1 (D-Y(SO3H)-[…]-Hyp-Hyp-S) synthesized by Scilight Peptide were incubated for 1 h with 1 µM of peptides in a plant cultivation light chamber (day-light condition; see ‘Plant cultivation conditions’), and the samples were frozen at −20 °C until further processing. For the investigation of AtPep1 degradation, the AtPep1 peptide was first modified by acetylation (six to seven times). To this end, 100-µl aliquots of peptides were treated with 10 µl of NHS acetate solution (1 M NHS acetate in 50% ACN/PBS) and incubated for 30 min with shaking. The reaction was quenched by the addition of 100 µl of 100 mM Tris-HCl (pH 8.5) and incubated for 10 min. For comparison of the non-acetylated peptides with the above-described modified AtPep1 peptides, aliquots of the non-acetylated peptides were processed as described above, but without the modifying NHS reaction. To this end, 100-µl aliquots of the sample were mixed with 100 µl of PBS buffer (137 mM NaCl, 2.7 mM KCl, 10 mM Na2HPO4, 1.8 mM KH2PO4; pH 7.4). The samples were then further diluted with 100 µl of 100 mM Tris-HCl (pH 8.5) and incubated for 10 min. All samples were acidified with 5 µl of TFA and desalted using StageTips with C18 Empore disk membranes (3M)[109]. The samples were dried in a vacuum evaporator and dissolved in 10 µl of 2% ACN (0.1% TFA for analysis).
The samples were analysed using an EASY-nLC 1200 (Thermo Fisher) coupled to a QExactive Plus mass spectrometer (Thermo Fisher). Peptides were separated on 16-cm frit-less silica emitters (New Objective, 75 µm inner diameter), packed in-house with reversed-phase ReproSil-Pur C18 AQ 1.9 µm resin (Dr. Maisch). Peptides were loaded on the column and eluted for 50 min using a segmented linear gradient of 5% to 95% solvent B (0 min, 5% B; 0–5 min, 15% B; 5–35 min, 50% B; 35–45 min, 95% B; 45–50 min, 95% B) (solvent A: 0% ACN, 0.1% FA; solvent B: 80% ACN, 0.1% FA) at a flow rate of 300 nl min^−1. Mass spectra were acquired in data-dependent acquisition mode with a TOP10 method. Mass spectrometry spectra were acquired in the Orbitrap analyser with a mass range of 300–1,500 m/z at a resolution of 70,000 full width at half maximum (FWHM) and a target value of 3 × 10^6 ions. Precursors were selected with an isolation window of 1.3 m/z. Higher-energy collision dissociation (HCD) fragmentation was performed at a normalized collision energy of 25. Tandem mass spectrometry (MS/MS) spectra were acquired with a target value of 5 × 10^5 ions at a resolution of 17,500 FWHM, a maximum injection time of 85 ms and a fixed first mass of 100 m/z. […]

[2] = filter-sterile supernatant of wild-type Rhodanobacter R179 cultivated in XVM2 medium (bacterial culture: OD600 = 0.4); settings: Rhodanobacter R179, plant cultivation light chamber (day-light condition; 21 °C), up to 1 h
[3] = filter-sterile supernatant of the Rhodanobacter R179 dssAB mutant cultivated in XVM2 medium (bacterial culture: OD600 = 0.4); settings: plant cultivation light chamber (day-light condition; 21 °C), up to 1 h
[4] = supernatant of the R179 dssAB mutant grown in XVM2 minimal medium supplemented with 10% TSB; settings: Rhodanobacter R179 dssAB mutant, plant cultivation light chamber (day-light condition; 21 °C), up to 1 h
[5] = supernatant of wild-type R179 grown in XVM2 medium supplemented with 10% carbon-rich medium (tryptic soy broth); settings: Rhodanobacter R179, plant cultivation light chamber (day-light condition; 21 °C), up to 1 h
[6] = R179 dssAB mutant supernatant, XVM2 medium, incubation 1h, MS1 precursor area, replicate 1
[7] = R179 dssAB mutant supernatant, XVM2 medium, incubation 1h, MS1 precursor area, replicate 2
[8] = R179 dssAB mutant supernatant, XVM2 medium, incubation 1h, MS1 precursor area, replicate 3
[9] = R179 dssAB mutant supernatant, XVM2 medium, incubation 1h, peptide relative to axenic, replicate 1
[10] = R179 dssAB mutant supernatant, XVM2 medium, incubation 1h, peptide relative to axenic, replicate 2
[11] = R179 dssAB mutant supernatant, XVM2 medium, incubation 1h, peptide relative to axenic, replicate 3
[12] = R179 wt supernatant, XVM2 medium, incubation 1h, MS1 precursor area, replicate 1
[13] = R179 wt supernatant, XVM2 medium, incubation 1h, MS1 precursor area, replicate 2
[14] = R179 wt supernatant, XVM2 medium, incubation 1h, MS1 precursor area, replicate 3
[15] = R179 wt supernatant, XVM2 medium, incubation 1h, peptide relative to axenic, replicate 1
[16] = R179 wt supernatant, XVM2 medium, incubation 1h, peptide relative to axenic, replicate 2
[17] = R179 wt supernatant, XVM2 medium, incubation 1h, peptide relative to axenic, replicate 3
[18] = axenic XVM2 medium control, incubation 1h, MS1 precursor area, replicate 1
[19] = axenic XVM2 medium control, incubation 1h, MS1 precursor area, replicate 2
[20] = axenic XVM2 medium control, incubation 1h, MS1 precursor area, replicate 3
[21] = axenic XVM2 medium control, incubation 1h, peptide relative to axenic, replicate 1
[22] = axenic XVM2 medium control, incubation 1h, peptide relative to axenic, replicate 2
[23] = axenic XVM2 medium control, incubation 1h, peptide relative to axenic, replicate 3

D-Y(SO3H)-GDPSANPKHDPGV-Hyp-Hyp-S [PSY1, root-growth-promoting sulfated PSY1 peptide]
peptide detected by mass spectrometry after incubation in supernatant of the R179 dssAB mutant [1]: still detected | peptide detected by mass spectrometry after incubation in supernatant of wild-type R179 [1]: still detected | Log10(total_area_MS1) [1, 6]: 9.656 | Log10(total_area_MS1) [1, 7]: 9.68 | Log10(total_area_MS1) [1, 8]: 9.49 | percent_rel_axenic [1, 9]: 16.8242% | percent_rel_axenic [1, 10]: 17.7896% | percent_rel_axenic [1, 11]: 11.4643% | Log10(total_area_MS1) [1, 12]: 9.465 | Log10(total_area_MS1) [1, 13]: 9.6971 | Log10(total_area_MS1) [1, 14]: 9.627 | percent_rel_axenic [1, 15]: 10.8248% | percent_rel_axenic [1, 16]: 18.4872% | percent_rel_axenic [1, 17]: 15.7291% | Log10(total_area_MS1) [1, 18]: 10.5778 | Log10(total_area_MS1) [1, 19]: 10.3906 | Log10(total_area_MS1) [1, 20]: 10.2645 | percent_rel_axenic [1, 21]: 140.453% | percent_rel_axenic [1, 22]: 91.2772% | percent_rel_axenic [1, 23]: 68.27%

DYSNPGHHP-Hyp-RHN
not cleaved [2]: still detected after 1 h; peak area above 100% relative to mock (Fig. 4a) | not cleaved [3]: still detected after 1 h; peak area above 100% relative to mock (Fig. 4a) | not cleaved [4]: peak area above 100% relative to mock (Extended Data Fig. 7d) | not cleaved [5]: peak area above 100% relative to mock (Extended Data Fig. 7d)

N=C(N)NCCC[C@H](NC(=O)[C@@H]1C[C@@H](O)CN1C(=O)[C@@H]1CCCN1C(=O)[C@H](Cc1c[nH]cn1)NC(=O)[C@H](Cc1c[nH]cn1)NC(=O)CNC(=O)[C@@H]1CCCN1C(=O)[C@H](CC(N)=O)NC(=O)[C@H](CO)NC(=O)[C@H](Cc1ccc(O)cc1)NC(=O)[C@@H](N)CC(=O)O)C(=O)N[C@@H](Cc1c[nH]cn1)C(=O)N[C@@H](CC(N)=O)C(=O)O [dRGF1] (H-DYSNPGHHP[Hyp]RHN-OH)
peptide detected by mass spectrometry after incubation in supernatant of the R179 dssAB mutant [1]: still detected | peptide detected by mass spectrometry after incubation in supernatant of wild-type R179 [1]: still detected | Log10(total_area_MS1) [1, 6]: 8.738 | Log10(total_area_MS1) [1, 7]: 8.7982 | Log10(total_area_MS1) [1, 8]: 8.898 | percent_rel_axenic [1, 9]: 299.876% | percent_rel_axenic [1, 10]: 344.476% | percent_rel_axenic [1, 11]: 433.442% | Log10(total_area_MS1) [1, 12]: 8.685 | Log10(total_area_MS1) [1, 13]: 8.632 | Log10(total_area_MS1) [1, 14]: 8.682 | percent_rel_axenic [1, 15]: 265.464% | percent_rel_axenic [1, 16]: 235.074% | percent_rel_axenic [1, 17]: 263.706% | Log10(total_area_MS1) ([1]; axenic XVM2_TSB, 1h, 1 µM, LC-MS [M+2H], replicate 2): 8.595 | Log10(total_area_MS1) ([1]; axenic XVM2_TSB, 1h, 1 µM, LC-MS [M+2H], replicate 3): 8.5 | percent_rel_axenic ([1]; axenic XVM2_TSB, 1h, 1 µM, LC-MS, relative to axenic, replicate 2): 103.573% | percent_rel_axenic ([1]; axenic XVM2_TSB, 1h, 1 µM, LC-MS, relative to axenic, replicate 3): 83.3448% | Log10(total_area_MS1) [1, 18]: 8.337 | Log10(total_area_MS1) [1, 19]: 8.259 | Log10(total_area_MS1) [1, 20]: 8.171 | percent_rel_axenic [1, 21]: 119.158% | percent_rel_axenic [1, 22]: 99.6152% | percent_rel_axenic [1, 23]: 81.2268% | Log10(total_area_MS1) ([1]; supernatant of wt R179 grown in XVM2_TSB, 1h, 1 µM, LC-MS [M+2H], replicate 1): 8.931 | Log10(total_area_MS1) ([1]; supernatant of wt R179 grown in XVM2_TSB, 1h, 1 µM, LC-MS [M+2H], replicate 2): 9.001 | percent_rel_axenic ([1]; supernatant of wt R179 grown in XVM2_TSB, 1h, 1 µM, LC-MS, relative to axenic, replicate 1): 225.002% | percent_rel_axenic ([1]; supernatant of wt R179 grown in XVM2_TSB, 1h, 1 µM, LC-MS, relative to axenic, replicate 2): 263.948%
